US11541084B2, “Method of promoting bone regrowth” (GENMONT BIOTECH INC., priority 2017, dated 2023)

Columns and labels:
Type in all cases: in vivo, mice (ICR female)
[1] = test system: osteoclast related gene TRAP-5; experiment: Real-time PCR of bone cDNA from OVX mice: TRAP-5 expression; conditions: bone RNA of OVX mice after 28 days of tube feed; compared with disease group (OVX+H2O)
Procedure: (§1) 8-week-old ICR female rats were purchased from BioLASCO Taiwan and ovariectomy was performed when they were 9 week-old. Mice were underwent anesthesia and were ovariectomized through back on both sides of the ovaries. All groups were given the test substance by means of tube feed at 4 days after surgery. The groups were divided into a sham operation group (control group, their abdominal cavity were cut but their ovaries were not removed); and 4 groups ovariectomized group (Ovariectomy; OVX). When the mice were sacrificed, the ovarian tissues were checked and confirmed whether the removal of ovarian was successful. The experimental results of the mice under failure operation were not used. […]
(§2) Extraction of tibial RNA: The left femur of the mice were removed, cut into small pieces with scissor, and an appropriate amount of liquid nitrogen was added to grind the bones quickly. […] The solution was placed at room temperature to react for 5 minutes, followed by centrifugalized and extracted the upper layer to new microcentrifuge tubes (eppendorf); 0.25 ml isopropanol was added thereto and the solution was placed at room temperature for 10 minutes and then centrifugalized; the supernatant was removed and the precipitate was washed with 0.5 ml 75% ethanol; after the precipitate was dried, 20-50 μl DEPC water was added to dissolve the precipitate and the RNA concentration was measured. […]

[2] = test system: ovariectomized (OVX) mice; experiment: Bone tissue analysis by micro computed tomography of the femur in the osteoporosis mouse model; conditions: right femur, tube feed for 28 days, mean ±SD
Procedure: Experiment 1: Bone tissue analysis
(§3) (1) preparation of viable bacteria: Inoculating the Lactobacillus plantarum GMNL-662 from a frozen tube to 1 ml of MRS broth, and standing under 37° C. for aerobically incubating for 20 hours. The next day, adding 15 μl culture solution into 1.5 ml of MRS broth (1% secondary activation), and then standing under 37° C. for aerobically incubating for 20 hours. Estimating the bacteria number by using OD 600 to adjust the bacteria concentration to 8×10^7 CFU/ml.
as §3, with “(2)” for “(1)”, “dead” for “viable”, “Plantarum strain” for “plantarum”, “4.1×10^8” for “8×10^7”
8-week-old ICR female […] were purchased from BioLASCO Taiwan and ovariectomy was performed when they were 9 week-old. Mice were underwent anesthesia and were ovariectomized through back on both sides of the ovaries. All groups were given the test substance by means of tube feed at 4 days after surgery. The groups were divided into a sham operation group (control group, their abdominal cavity were cut but their ovaries were not removed); and 4 groups ovariectomized group (Ovariectomy; OVX). When the mice were sacrificed, the ovarian tissues were checked and confirmed whether the removal of ovarian was successful. The experimental results of the mice under failure operation were not used. […] The mice were given 0.1 ml per 10 grams of body weight and 4 times a week. The remaining two groups were fed with 0.2 ml of alive GMNL-662 (strain concentration is 8×10^7 cfu/ml; daily dose of the mouse is 1.6×10^7 cfu/mouse, the human dose is 4×10^9 cfu/60 kg adult), and 0.2 ml of dead GMNL-662 (strain concentration is 4.1×10^8 cfu/ml; daily dose of the mouse is 8.2×10^7 cells/mouse, the human dose is 2×10^10 cells/60 kg adult). The two groups were fed with tube one time every day, continued for 28 days, the mice were anesthetized and sacrificed for intraperitoneal cephalic vein sampling, and each femur was removed for analysis.
The backbone of the right femur far from the end was taken a computer tomography by a micro computed tomography (SkyScan 1076, Kontizh, Belgium, with resolution of 18 μm), and the trabecular bone volume ratio (i.e. bone volume/tissue volume) is analyzed by a software. The analyzed position was selected to include the area of 100 pieces under the growth plate excluding cortical bone. The bone mineral density analysis was applied to the same area. The obtained data in the experiments were analyzed with two-way analysis of variance, and executed T-test statistical analysis. All data were presented as mean ±SD. After comparisons, the abovementioned groups were analyzed statistically and noted by different marks to represent the statistically significant differences (* represents p<0.05; ** represents p<0.01).

cytokine TGF-β = experiment: Real-time PCR of bone cDNA from OVX mice: TGF-β expression; conditions: bone RNA of OVX mice after 28 days of tube feed; compared with disease group (OVX+H2O)
Procedure: as §1, §2

osteocalcin gene = experiment: Real-time PCR of bone cDNA from OVX mice: osteocalcin expression; conditions: bone RNA of OVX mice after 28 days of tube feed; compared with disease group (OVX+H2O)
Procedure: as §1, §2

[3] = * p<0.05, ** p<0.01, disease group OVX+H2O 0.344 ± 0.04, sham control 0.502 ± 0.04
[4] = * p<0.05, ** p<0.01, disease group OVX+H2O 30.9 ± 1.1, sham control 42.12 ± 2.4

Substance	expression of osteoclast related gene TRAP-5, FIG. 3 [1]	Femur bone mineral density (BMD, excluding cortical bone) [2, 3]	Femur bone mineral density (BMD, excluding cortical bone) ([2]; * p<0.05, ** p<0.01, disease group OVX+H2O 0.344 ± 0.04, sham control 0.502 ± 0.04, listed as dead GMNL-662)	Trabecular bone volume ratio (BV/TV, bone volume/tissue volume) [2, 4]	Trabecular bone volume ratio (BV/TV, bone volume/tissue volume) ([2]; * p<0.05, ** p<0.01, disease group OVX+H2O 30.9 ± 1.1, sham control 42.12 ± 2.4, listed as dead GMNL-662)	expression of cytokine TGF-β (relative to GAPDH), FIG. 1 (cytokine TGF-β)	expression of osteocalcin gene, FIG. 2 (osteocalcin gene)	Femur bone mineral density (BMD, excluding cortical bone) ([2]; * p<0.05, ** p<0.01, disease group OVX+H2O 0.344 ± 0.04, sham control 0.502 ± 0.04, listed as alive GMNL-662)	Trabecular bone volume ratio (BV/TV, bone volume/tissue volume) ([2]; * p<0.05, ** p<0.01, disease group OVX+H2O 30.9 ± 1.1, sham control 42.12 ± 2.4, listed as alive GMNL-662)
Lactobacillus plantarum strain GMNL-662 [GMNL-662 dead]	significantly lower	0.474 ± 0.01** g/cm^3	significantly higher	36.8 ± 1.2** %	higher than the disease group	significant increased expression	higher than the disease group	–	–
Lactobacillus plantarum strain GMNL-662 [GMNL-662 alive]	significantly lower	0.488 ± 0.02** g/cm^3	–	36.92 ± 1.7** %	–	significant increased expression	higher than the disease group	significantly higher	higher than the disease group
